The target in one experiment is T1, KRASG12D (Homo sapiens, UniProt P01116, G12D).
T1 construct: made in house; host or cells: E. coli BL21 (DE3)
Kind of experiment: Bio-Biochem-PPI-HTRF Ras-SOS1 interaction assay (KRAS G12D). In kind it is biochemical. As to conditions: 5 nM. The essentials:
(§1)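 HTRF measurement of GST-K-Ras (wt or G12D) binding to His-hSOS1, via anti-GST-Eu(K) donor and anti-6His-XL665 acceptor, in HEPES pH 7.4 buffer with NaCl, DTT, BSA and Igepal. Read after ≥10 min; compounds in duplicate from 10 μM down to 0.01 μM. IC50 from 665/620 nm ratio.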

The next experiment concerns the target T2, KRASwt (Homo sapiens, UniProt P01116).
T2 construct: made in house; host or cells: E. coli BL21 (DE3)
Kind of experiment: Bio-Biochem-PPI-HTRF Ras-SOS1 interaction assay (KRAS wt). In kind it is biochemical. Particulars: 5 nM. An outline of the steps: as §1
(In TR-FRET formats the signal depends on donor and acceptor labels being close together.)

Bounds are passed on as bounds.

In general, IC50 refers to the concentration that gives 50% inhibition. The low end stands for inhibition by little substance, the high end for a need for much substance.

T2 sequence (P01116 1-188 isoform P01116-2): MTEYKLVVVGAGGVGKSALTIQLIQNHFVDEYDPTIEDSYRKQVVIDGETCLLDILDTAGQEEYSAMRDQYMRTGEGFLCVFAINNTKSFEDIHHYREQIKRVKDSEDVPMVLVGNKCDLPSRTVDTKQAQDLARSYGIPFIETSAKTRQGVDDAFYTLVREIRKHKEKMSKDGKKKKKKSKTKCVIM
T1 sequence (P01116 1-188 isoform P01116-2 G12D): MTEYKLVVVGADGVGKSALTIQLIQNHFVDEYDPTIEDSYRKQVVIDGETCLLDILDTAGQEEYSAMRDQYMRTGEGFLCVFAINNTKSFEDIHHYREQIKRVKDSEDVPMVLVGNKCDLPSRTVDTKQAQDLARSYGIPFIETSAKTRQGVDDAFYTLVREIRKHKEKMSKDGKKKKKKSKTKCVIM

`Nc1nc2c(-c3c(Cl)cc4c(N5CCC6(CC5)CN(C(=O)C(F)F)C6)nc(OC[C@@]56CCCN5C[C@H](F)C6)nc4c3F)ccc(F)c2s1` [compound 139, 1-(7-(7-(2-amino-7-fluorobenzo[d]thiazol-4-yl)-6-chloro-8-fluoro-2-(((2R,7aS)-2-fluorotetrahydro-1H-pyrrolizin-7a(5H)-yl)methoxy)quinazolin-4-yl)-2,7-diazaspiro[3.5]nonan-2-yl)-2,2-difluoroethan-1-one]: the IC50 against KRASG12D and against KRASwt was under 5 µM throughout.

In the case of `N#Cc1c(N)sc2c(F)ccc(-c3c(Cl)cc4c(N5CCCC6(CNC6)C5)nc(OC[C@@]56CCCN5C[C@H](F)C6)nc4c3F)c12` [compound 147, 2-amino-4-(6-chloro-8-fluoro-2-(((2R,7aS)-2-fluorotetrahydro-1H-pyrrolizin-7a(5H)-yl)methoxy)-4-(2,6-diazaspiro[3.5]nonan-6-yl)quinazolin-7-yl)-7-fluorobenzo[b]thiophene-3-carbonitrile], the IC50 on KRASG12D and against KRASwt was under 5 µM each time.

Turning to `N#CN1CC2(CCCN(c3nc(OC[C@@]45CCCN4C[C@H](F)C5)nc4c(F)c(-c5ccc(F)c6sc(N)nc56)c(Cl)cc34)C2)C1` [compound 177, 6-(7-(2-amino-7-fluorobenzo [d]thiazol-4-yl)-6-chloro-8-fluoro-2-(((2R,7aS)-2-fluorotetrahydro-1H-pyrrolizin-7a(5H)-yl)methoxy)quinazolin-4-yl)-2,6-diazaspiro[3.5]nonane-2-carbonitrile], the IC50 against KRASG12D and on KRASwt was under 5 µM each time.

As to `C#Cc1c(F)ccc2cc(O)cc(-c3ncc4c(N5CCOCC6(CN(C(=O)[C@H]7CC7(F)F)C6)C5)nc(OC[C@@]56CCCN5C[C@H](F)C6)nc4c3F)c12` [compound 316, ((R)-2,2-difluorocyclopropyl) (9-(7-(8-ethynyl-7-fluoro-3-hydroxynaphthalen-1-yl)-8-fluoro-2-(((2R,7aS)-2-fluorotetrahydro-1H-pyrrolizin-7a(5H)-yl)methoxy)pyrido[4,3-d]pyrimidin-4-yl)-6-oxa-2,9-diazaspiro[3.6]decan-2-yl)methanone], the IC50 against KRASG12D and against KRASwt was under 5 µM in each case.

As for `N#Cc1c(N)sc2c(F)ccc(-c3c(Cl)cc4c(N5CCCCC6(CN(C(=O)N7CC[C@H]7C#N)C6)C5)nc(OC[C@@]56CCCN5C[C@H](F)C6)nc4c3F)c12` [compound 224, (2S)-1-(6-(7-(2-amino-3-cyano-7-fluorobenzo[b]thiophen-4-yl)-6-chloro-8-fluoro-2-(((2R,7aS)-2-fluorotetrahydro-1H-pyrrolizin-7a(5H)-yl)methoxy)quinazolin-4-yl)-2,6-diazaspiro[3.6]decane-2-carbonyl)azetidine-2-carbonitrile], the IC50 at KRASG12D and on KRASwt was under 5 µM in each case.

Regarding `C[C@H](Oc1nc(N2CCOC3(CNC3)C2)c2cc(Cl)c(-c3ccc(F)c4sc(N)c(C#N)c34)c(F)c2n1)[C@@H]1CCCN1C` [compound 110, 2-amino-4-(6-chloro-8-fluoro-2-((S)-1-((S)-1-methylpyrrolidin-2-yl)ethoxy)-4-(5-oxa-2,8-diazaspiro[3.5]nonan-8-yl)quinazolin-7-yl)-7-fluorobenzo[b]thiophene-3-carbonitrile], the IC50 at KRASG12D and on KRASwt was under 5 µM in each case.

For the molecule `Nc1nc2c(-c3c(Cl)cc4c(N5CCOC6(CCNC6)C5)nc(OCC56CCCN5C[C@H](F)C6)nc4c3F)ccc(F)c2s1` (stereo partly drawn) [compound 150, 4-(6-chloro-8-fluoro-2-(((2R)-2-fluorotetrahydro-1H-pyrrolizin-7a(5H)-yl)methoxy)-4-(6-oxa-2,9-diazaspiro[4.5]decan-9-yl)quinazolin-7-yl)-7-fluorobenzo[d]thiazol-2-amine], the half-inhibitory concentration (IC50) against KRASG12D and against KRASwt was under 5 µM throughout.

Regarding `N#Cc1c(N)sc2c(F)ccc(-c3c(Cl)cc4c(N5CCCCC6(CN(C(=O)[C@@H]7C[C@H]7C#N)C6)C5)nc(OC[C@@]56CCCN5C[C@H](F)C6)nc4c3F)c12` [compound 263, 2-amino-4-(6-chloro-4-(2-((1R,2R)-2-cyanocyclopropane-1-carbonyl)-2,6-diazaspiro[3.6]decan-6-yl)-8-fluoro-2-(((2R,7aS)-2-fluorotetrahydro-1H-pyrrolizin-7a(5H)-yl)methoxy)quinazolin-7-yl)-7-fluorobenzo[b]thiophene-3-carbonitrile], the 50% inhibitory concentration (IC50) at KRASG12D and against KRASwt was under 5 µM in each case.

In the case of `CC1(O)CCN(c2nc(OC[C@@]34CCCN3C[C@H](F)C4)nc3c(F)c(-c4ccc(F)c5sc(N)c(C#N)c45)c(Cl)cc23)CC2(CN(C(=O)[C@@H]3CC3(F)F)C2)C1` (stereo partly drawn) [compound 218, 2-amino-4-(6-chloro-4-(2-((S)-2,2-difluorocyclopropane-1-carbonyl)-9-hydroxy-9-methyl-2,6-diazaspiro [3.6]decan-6-yl)-8-fluoro-2-(((2R,7aS)-2-fluorotetrahydro-1H-pyrrolizin-7a(5H)-yl)methoxy)quinazolin-7-yl)-7-fluorobenzo[b]thiophene-3-carbonitrile], the IC50 against KRASG12D and against KRASwt was under 5 µM in each case.

For `C#Cc1c(F)ccc2cc(O)cc(-c3ccc4c(N5CCCCC6(CN(C(=O)[C@@H]7CC7(F)F)C6)C5)nc(OC[C@@]56CCCN5C[C@H](F)C6)nc4c3F)c12` [compound 260, ((S)-2,2-difluorocyclopropyl) (6-(7-(8-ethynyl-7-fluoro-3-hydroxynaphthalen-1-yl)-8-fluoro-2-(((2R,7aS)-2-fluorotetrahydro-1H-pyrrolizin-7a(5H)-yl)methoxy)quinazolin-4-yl)-2,6-diazaspiro[3.6]decan-2-yl)methanone], the IC50 against KRASG12D and against KRASwt was under 5 µM in each case.

For the molecule `N#Cc1c(N)sc2c(F)ccc(-c3c(Cl)cc4c(N5CCCCC6(CN(C(=O)N7CC(C(F)F)C7)C6)C5)nc(OC[C@@]56CCCN5C[C@H](F)C6)nc4c3F)c12` [compound 196, 2-amino-4-(6-chloro-4-(2-(3-(difluoromethyl)azetidine-1-carbonyl)-2,6-diazaspiro[3.6]decan-6-yl)-8-fluoro-2-(((2R,7aS)-2-fluorotetrahydro-1H-pyrrolizin-7a(5H)-yl)methoxy)quinazolin-7-yl)-7-fluorobenzo[b]thiophene-3-carbonitrile], the IC50 at KRASG12D and against KRASwt was under 5 µM throughout.

As to `C#Cc1c(F)ccc2cc(O)cc(-c3nc4c(cc3F)c(N3CCOC5(CNC5)C3)nc(=O)n4-c3c(C)ccnc3C(C)C)c12` [compound 170, 7-(8-ethynyl-7-fluoro-3-hydroxynaphthalen-1-yl)-6-fluoro-1-(2-isopropyl-4-methylpyridin-3-yl)-4-(5-oxa-2,8-diazaspiro[3.5]nonan-8-yl)pyrido[2,3-d]pyrimidin-2(1H)-one], the IC50 against KRASG12D and on KRASwt was at least 5 µM throughout.

`CN1CCC[C@H]1COc1nc2c(c(N3CCCCC4(CN(C(=O)C5CC5(F)F)C4)C3)n1)CCN(c1cccc3cccc(Cl)c13)C2` (stereo partly drawn) [compound 236, (6-(7-(8-chloronaphthalen-1-yl)-2-(((S)-1-methylpyrrolidin-2-yl)methoxy)-5,6,7,8-tetrahydropyrido[3,4-d]pyrimidin-4-yl)-2,6-diazaspiro[3.6]decan-2-yl)(2,2-difluorocyclopropyl)methanone]: the IC50 at KRASG12D and on KRASwt was at least 5 µM each time.

In the case of `CC(C)(C(=O)N1CC2(CCCCN(c3nc(OC[C@@]45CCCN4C[C@H](F)C5)nc4c(F)c(-c5ccc(F)c6sc(N)c(C#N)c56)c(Cl)cc34)C2)C1)N1CCOCC1` [compound 266, 2-amino-4-(6-chloro-8-fluoro-2-(((2R,7aS)-2-fluorotetrahydro-1H-pyrrolizin-7a(5H)-yl)methoxy)-4-(2-(2-methyl-2-morpholinopropanoyl)-2,6-diazaspiro[3.6]decan-6-yl)quinazolin-7-yl)-7-fluorobenzo[b]thiophene-3-carbonitrile], the IC50 against KRASG12D and at KRASwt was under 5 µM each time.

With `Nc1nc2c(-c3c(Cl)cc4c(N5CCC6(CC5)CN(C(=O)C(F)(F)F)C6)nc(OC[C@@]56CCCN5C[C@H](F)C6)nc4c3F)ccc(F)c2s1` [compound 168, 1-(7-(7-(2-amino-7-fluorobenzo[d]thiazol-4-yl)-6-chloro-8-fluoro-2-(((2R,7aS)-2-fluorotetrahydro-1H-pyrrolizin-7a(5H)-yl)methoxy)quinazolin-4-yl)-2,7-diazaspiro[3.5]nonan-2-yl)-2,2,2-trifluoroethan-1-one], the 50% inhibitory concentration (IC50) against KRASG12D is at least 5 µM; against KRASwt it was under 5 µM.

In the case of `N#Cc1c(N)sc2c(F)ccc(-c3c(Cl)cc4c(N5CCC(F)(F)CC6(CN(C(=O)[C@@H]7C[C@H]7C#N)C6)C5)nc(OC[C@@]56CCCN5C[C@H](F)C6)nc4c3F)c12` [compound 342, 2-amino-4-(6-chloro-4-(2-((1R,2R)-2-cyanocyclopropane-1-carbonyl)-9,9-difluoro-2,6-diazaspiro[3.6]decan-6-yl)-8-fluoro-2-(((2R,7aS)-2-fluorotetrahydro-1H-pyrrolizin-7a(5H)-yl)methoxy)quinazolin-7-yl)-7-fluorobenzo[b]thiophene-3-carbonitrile], the IC50 at KRASG12D and against KRASwt was under 5 µM each time.

For `N#Cc1c(N)sc2c(F)ccc(-c3c(Cl)cc4c(N5CCOC6(CN(C(=O)[C@H]7CC7(F)F)C6)C5)nc(OC[C@@]56CCCN5C[C@H](F)C6)nc4c3F)c12` (single isomer, unassigned) [compound 176], the IC50 at KRASG12D and on KRASwt was under 5 µM each time.

As for `N#Cc1c(N)sc2c(F)ccc(-c3c(Cl)cc4c(N5CCCCC6(CN(CC7CC7(F)F)C6)C5)nc(OC[C@@]56CCCN5C[C@H](F)C6)nc4c3F)c12` (stereo partly drawn) [compound 255, 2-amino-4-(6-chloro-4-(2-((2,2-difluorocyclopropyl)methyl)-2,6-diazaspiro[3.6]decan-6-yl)-8-fluoro-2-(((2R,7aS)-2-fluorotetrahydro-1H-pyrrolizin-7a(5H)-yl)methoxy)quinazolin-7-yl)-7-fluorobenzo[b]thiophene-3-carbonitrile], the half-inhibitory concentration (IC50) on KRASG12D and against KRASwt was under 5 µM in each case.
